Source: patent publication US7678918B2, “Intermediates for imidazonaphthyridines” (3M Innovative Properties Company, priority 1997, dated 2010)

How the values were obtained:
TNF = assay: Cytokine Induction in Human Cells: tumor necrosis factor (TNF) secreted by PBMCs, ELISA; assay type: cell-based; conditions: 18 to 24 hours; note: call rule not given here
Outline: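 Human donor PBMCs at 1.5-2×10^6 cells/mL in RPMI with 10% FBS were exposed to compound, generally at 0.1 to 100 μM (≤1% DMSO final), for 18 to 24 h at 37 °C. Secreted TNF in supernatant was measured by ELISA and reported as pg/mL.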

interferon α = assay: Interferon (α) Induction in Human Cells (PBM's, 48 hours, A549 bioassay); assay type: cell-based; design: key: +: indicates that the compound induced interferon α at that particular concentration; −: indicates that the compound did not induce interferon α at that particular concentration; ±: indicates that the results were equivocal at that particular concentration; conditions: 48 hours incubation
Description: An in vitro human blood cell system was used to assess interferon induction by compounds of the invention. Activity is based on the measurement of interferon secreted into culture media. Interferon is measured by bioassay.
Whole blood was collected by venipuncture into EDTA vacutainer tubes. Peripheral blood mononuclear cells (PBM's) were separated from whole blood by using either LeucoPREP™ Brand Cell Separation Tubes (available from Becton Dickinson) or Ficoll-Paque® solution (available from Pharmacia LKB Biotechnology Inc, Piscataway, N.J.). The PBM's were suspended at 1×10^6/mL in RPMI 1640 media (available from GIBCO, Grand Island, N.Y.) containing 25 mM HEPES (N-2-hydroxyethylpiperazine-N′-2-ethanesulfonic acid) and L-glutamine (1% penicillin-streptomycin solution added) with 10% heat inactivated (56° C. for 30 minutes) autologous serum added. 200 μL portions of PBM suspension were added to 96 well (flat bottom) MicroTest III sterile tissue culture plates.
The compounds were solubilized in ethanol, dimethyl sulfoxide or tissue culture water then diluted with tissue culture water, 0.01N sodium hydroxide or 0.01N hydrochloric acid (The choice of solvent will depend on the chemical characteristics of the compound being tested.). Ethanol or DMSO concentration should not exceed a final concentration of 1% for addition to the culture wells. Compounds were initially tested in a concentration range of from about 0.1 μg/mL to about 5 μg/mL. Compounds which show induction at a concentration of 0.5 μg/mL were then tested in a wider concentration range.
The solution of test compound was added in a volume (less than or equal to 50 μL) to the wells containing 200 μL of diluted whole blood or of PBM's in media. Solvent and/or media was added to control wells (wells with no test compound) and as needed to adjust the final volume of each well to 250 μL. The plates were covered with plastic lids, vortexed gently and then incubated for 48 hours at 37° C. with a 5% carbon dioxide atmosphere.
Following incubation, the plates were covered with parafilm and then centrifuged at 1000 rpm for 10 to 15 minutes at 4° C. in a Damon IEC Model CRU-5000 centrifuge. Media (about 200 μL) was removed from 4 to 8 wells and pooled into 2 mL sterile freezing vials. Samples were maintained at −70° C. until analysis.
Interferon was determined by bioassay using A549 human lung carcinoma cells challenged with encephalomyocarditis. The details of the bioassay method have been described by G. L. Brennan and L. H. Kronenberg in “Automated Bioassay of Interferons in Micro-test Plates”, Biotechniques, June/July 78, 1983, incorporated herein by reference. Briefly stated the method is as follows: interferon dilutions and A549 cells are incubated at 37° C. for 12 to 24 hours. The incubated cells are infected with an inoculum of encephalomyocarditis virus. The infected cells are incubated for an additional period at 37° C. before quantifying for viral cytopathic effect. The viral cytopathic effect is quantified by staining followed by spectrophotometric absorbance measurements. Results are expressed as alpha reference units/mL based on the value obtained for NIH HU IF-L standard. The interferon was identified as essentially all interferon alpha by testing in checkerboard neutralization assays against rabbit anti-human interferon (beta) and goat anti-human interferon (alpha) using A549 cell monolayers challenged with encephalomyocarditis virus.

IFN = assay: Cytokine Induction in Human Cells: interferon (IFN) secreted by PBMCs, A549/encephalomyocarditis bioassay; assay type: cell-based; conditions: 18 to 24 hours; note: call rule not given here
Outline: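 Human PBMCs from healthy donors at 1.5-2×10^6 cells/mL in RPMI with 10% FBS, exposed to compounds (typically 0.1 to 100 μM, ≤1% DMSO) for 18 to 24 h at 37° C. Secreted IFN measured by A549/encephalomyocarditis virus cytopathic-effect bioassay, in alpha reference units/mL against NIH human leukocyte IFN standard.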

Compound	TNF induction (TNF; Dose Concentration 1.0 μM)	TNF induction (TNF; Dose Concentration 10.0 μM)	TNF induction (TNF; Dose Concentration 100.0 μM)	melting point [°C]	Interferon (α) Induction in Human Cells (interferon α; Dose Concentration 1.0 μg/mL)	Interferon (α) Induction in Human Cells (interferon α; Dose Concentration 5.0 μg/mL)	Interferon (α) Induction in Human Cells (interferon α; Dose Concentration 10.0 μg/mL)	Interferon (α) Induction in Human Cells (interferon α; Dose Concentration 25.0 μg/mL)	IFN induction (IFN; Dose Concentration 1.0 μM)	IFN induction (IFN; Dose Concentration 10.0 μM)	IFN induction (IFN; Dose Concentration 100.0 μM)	Interferon (α) Induction in Human Cells (interferon α; Dose Concentration 0.01 μg/mL)	Interferon (α) Induction in Human Cells (interferon α; Dose Concentration 0.05 μg/mL)	Interferon (α) Induction in Human Cells (interferon α; Dose Concentration 0.10 μg/mL)	Interferon (α) Induction in Human Cells (interferon α; Dose Concentration 0.50 μg/mL)	Interferon (α) Induction in Human Cells (interferon α; Dose Concentration 50.0 μg/mL)
CC(C)Cn1cnc2c(N)nc3cnccc3c21 [Example 22, 1-(2-Methylpropyl)-1H-imidazo[4,5-c][1,7]naphthyridin-4-amine]	−	±	+	306 to 307	−	−	−	+	−	−	−					
CC(C)Cn1cnc2c(N)nc3c(c21)NCCC3 [Example 33, 6,7,8,9-Tetrahydro-1-(2-methylpropyl)-1H-imidazo[4,5-c][1,5]naphthyridin-4-amine]	−	−	−	222 to 226	−	+	+	+	+	+	+	−	−	−	−	+
